# Measured values: publication PMC4871228 (European journal of medicinal chemistry, 2015)
# Read-outs that look alike come from different tables or passages of the source.
# Key:
# KAT8 [1] = target: T1, KAT8 (Homo sapiens, UniProt Q9H7Z6); assay: KAT8 inhibition, fluorescence-based assay detecting CoA with CPM; assay type: biochemical; conditions: within the investigated range of concentrations (up to 400 µM)
# T1 sequence (Q9H7Z6 1-458): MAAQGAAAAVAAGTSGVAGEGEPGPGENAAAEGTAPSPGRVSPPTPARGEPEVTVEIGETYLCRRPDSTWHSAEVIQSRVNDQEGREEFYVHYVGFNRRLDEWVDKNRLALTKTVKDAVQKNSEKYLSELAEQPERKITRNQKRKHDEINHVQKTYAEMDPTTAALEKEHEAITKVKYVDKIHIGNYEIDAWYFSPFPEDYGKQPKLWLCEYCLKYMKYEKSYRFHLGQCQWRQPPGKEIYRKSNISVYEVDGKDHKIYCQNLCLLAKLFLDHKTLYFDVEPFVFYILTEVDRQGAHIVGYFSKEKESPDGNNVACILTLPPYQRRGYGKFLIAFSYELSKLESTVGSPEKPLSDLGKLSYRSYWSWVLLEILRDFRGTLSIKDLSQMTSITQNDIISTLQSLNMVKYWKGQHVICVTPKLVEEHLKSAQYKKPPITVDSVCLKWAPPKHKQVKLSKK
# KAT8 [2] = target: T1, KAT8; assay: Isothermal titration calorimetry, titration to KAT8; assay type: binding; conditions: ITC, Ac-CoA vs KAT8
# KAT8 [3] = target: T1, KAT8; assay: Steady-state enzyme kinetics of KAT8 substrates; assay type: biochemical; conditions: for Km: read-out: Km of Ac-CoA
structure (smiles),measurement,setting,value
CCCCCc1cccc(O)c1C(=O)O [Compound 14],KAT8 inhibitory potency (in words),KAT8 [1],completely lose their affinity
"CC(=O)SCCNC(=O)CCNC(=O)[C@H](O)C(C)(C)COP(=O)(O)OP(=O)(O)OC[C@H]1O[C@@H](n2cnc3c(N)ncnc32)[C@H](O)[C@@H]1OP(=O)(O)O [Ac-CoA, acetyl coenzyme A]",-TΔS,KAT8 [2],−17228 cal/mol/degK
same,Kd,KAT8 [2],8.7 ± 1.2 µM
same,N (stoichiometry),KAT8 [2],0.95
same,ΔG,KAT8 [2],−6758
same,ΔH,KAT8 [2],10.47 ± 0.47 kcal/mol
same,Vmax of Ac-CoA,KAT8 [3]; 15 µM histone H4 peptide,3.4 ± 0.2 pmol/min
same,kcat of Ac-CoA,KAT8 [3]; 15 µM histone H4 peptide,0.0033 ± 0.00033 s⁻¹
same,Vmax of Ac-CoA,KAT8 [3]; 30 µM histone H4 peptide,4.5 ± 0.3 pmol/min
same,kcat of Ac-CoA,KAT8 [3]; 30 µM histone H4 peptide,0.005 ± 0.00033 s⁻¹
same,Vmax of Ac-CoA,KAT8 [3]; 60 µM histone H4 peptide,9.9 ± 0.3 pmol/min
same,kcat of Ac-CoA,KAT8 [3]; 60 µM histone H4 peptide,0.012 ± 0.00067 s⁻¹
same,Vmax of Ac-CoA,KAT8 [3]; 90 µM histone H4 peptide,14.7 ± 0.6 pmol/min
same,kcat of Ac-CoA,KAT8 [3]; 90 µM histone H4 peptide,0.0183 ± 0.001 s⁻¹
same,Km,KAT8 [3]; 15 µM histone H4 peptide,1.1 ± 0.3 µM
same,Km,KAT8 [3]; 30 µM histone H4 peptide,1.2 ± 0.3 µM
same,Km,KAT8 [3]; 60 µM histone H4 peptide,2.1 ± 0.3 µM
same,Km,KAT8 [3]; 90 µM histone H4 peptide,2.8 ± 0.5 µM
O=C(O)c1c(O)cccc1CCCCCCCCCCCO [Compound 8b],KAT8 inhibitory potency (in words),KAT8 [1],loss of potency
CCCCCCCSCC(=O)c1ccccc1O [Compound 13],KAT8 inhibitory potency (in words),KAT8 [1],completely removed activity
CCCCCc1ccc(O)c(C(=O)O)c1 [Compound 11c],KAT8 inhibitory potency (in words),KAT8 [1],completely lose their affinity
